According to paper PMC6269853, “Synthesis and Biological Evaluation of Unsymmetrical Curcumin Analogues as Tyrosinase Inhibitors” (Molecules, 2013):

Columns and labels:
mushroom tyrosinase [1] = assay: Inhibition kinetics by Lineweaver-Burk plots; assay type: biochemical; settings: oxidation of L-DOPA
Procedure: The inhibitory mechanism of selected compounds 3c, 3d, 3i and 3j against mushroom tyrosinase during the oxidation of L-DOPA was determined by the same methods. […] However, 3d and 3j containing m-dihydroxyl groups on ring B were competitive inhibitors because the intersection of those straight lines was on the Y-axis.
Concentrations of 3c, 3d, 3i and 3j for curves 1–3 were 0.0 μM, 4.06 μM, 12.18 μM; 0.0 μM, 4.06 μM, 16.23 μM; 0.0 μM, 14.8 μM, 59.2 μM; 0.0 μM, 3.70 μM, 11.09 μM, respectively.
Pre-incubation and measurement time was the same as the procedure in section 3.3. Maximal initial velocity was determined from initial linear portion of absorbance between 0 and 60 s after addition of mushroom tyrosinase. The inhibition type on the enzyme was assayed by Lineweaver–Burk plots, and the inhibition constant was determined by the second plots of the apparent Km/Vm or 1/Vm versus the concentration of compound. The same procedure was executed for other compounds.

CD-1 mice = assay: Acute oral toxicity in mice (OECD 423); assay type: in vivo; settings: for Body Weight: last day; for Drinking Water / Food Intake: measured daily and averaged; for autopsy, changes in organs: mice, 1,200 mg/kg, end of experimental period (14 days)
Procedure: 3d and 3j were used as the representative compounds to evaluate the toxicity in mice.
The acute toxicity of compound 3d was examined according to the OECD 423 Guideline for Testing of Chemicals Acute Oral Toxicity – Acute Toxic Class Method procedures. The test procedure was applied with an initial dose at 1,200 mg/kg. Male and female CD-1 mice (six males and six females; 7~8 weeks old) were obtained from Center of Animal Test of the Sun Yat-sen University, housed in the University-approved animal facility in rooms maintained at 22 ± 2 °C with 55%–60% humidity and 12 h photoperiod. After five-day adaptation to laboratory conditions, mice were divided into four equal groups (controls: male, female, and treated: male and female, three animals in each group, equal body mass) and given by gavage either a single dosage of 1,200 mg 3d (dispersed in 3% Tween 80 aqueous solution)/kg, and equal volumes of distilled water containing 3% Tween 80 for control groups, using a suitably graduated syringe and a stainless steel intubation cannula. Mice had free access to distilled water and commercial standard diet. Animals were observed individually after dosing at least once during the first 30 min, periodically during the first 24 h, with special attention given during the first 4 h, and daily thereafter, for a total of 14 days. All observations were systematically recorded with individual records being maintained for each animal. Individual body weight of animals was determined shortly before the test substance was administered and weekly thereafter. All the animals were sacrificed at the end of the observation period and subjected to a necropsy. The same procedure was performed for compound 3j.

mushroom tyrosinase [2] = assay: Diphenolase inhibitory activity of mushroom tyrosinase (L-DOPA oxidation, spectrophotometric); assay type: biochemical; settings: for IC50: L-DOPA 0.5 mM, pH 6.8, 25 °C
Procedure: UCAs 3a–k, 4a–i were subjected to tyrosinase inhibitory assays by measuring the oxidation of L-DOPA according to the literature protocol.
The spectrophotometric assay for tyrosinase was performed according to the reported method with slight modifications. Briefly, all the synthesized compounds were screened for the diphenolase inhibitory activity of tyrosinase using L-DOPA as the substrate. All compounds were dissolved in DMSO. The final concentration of the test solution was 2.0%. Phosphate buffer (pH = 6.8) was used to dilute the DMSO stock solution of test compounds. Thirty units of mushroom tyrosinase (0.5 mg/mL) were firstly pre-incubated with these compounds in 50 mM phosphate buffer (pH = 6.8) at 25 °C for 10 min. L-DOPA (0.5 mM) was then added to the reaction mixture and the enzyme reaction was monitored by measuring the change in absorbance at 475 nm of the formation of L-DOPA chrome for 1 min. The measurement was performed for three times for each concentration and averaged before further calculations. IC50 values were determined by the interpolation of the dose–response curves.

Molecule	IC50 (mushroom tyrosinase [2]) [µM]	melting point [°C]	other results
COc1cc(C=C2CCC(=Cc3ccc(O)cc3O)C2=O)ccc1O [Compound 3j, 2-(2,4-Dihydroxybenzylidene)-5-(4-hydroxy-3-methoxybenzylidene)cyclopentanone]			inhibition type (mushroom tyrosinase [1]): competitive; Body Weight (CD-1 mice; female CD-1 mice, 1,200 mg/kg): 26.9 ± 2.1 g; Drinking Water (CD-1 mice; female CD-1 mice, 1,200 mg/kg): 4.1 ± 0.4 mL/day; Food Intake (CD-1 mice; female CD-1 mice, 1,200 mg/kg): 3.9 ± 0.5 g/day; Body Weight (CD-1 mice; male CD-1 mice, 1,200 mg/kg): 30.1 ± 2.8 g; Drinking Water (CD-1 mice; male CD-1 mice, 1,200 mg/kg): 5.4 ± 0.5 mL/day; Food Intake (CD-1 mice; male CD-1 mice, 1,200 mg/kg): 5.2 ± 0.4 g/day; autopsy, changes in organs (CD-1 mice): no apparent changes
1-(3,4-Dihydroxyphenyl)-5-(4-hydroxy-3-methoxyphenyl)penta-1,4-dien-3-one [Compound 4g]	> 200		
COc1ccc(C=CC(=O)C=Cc2ccc(O)cc2)cc1 [Compound 4a, 1-(4-Hydroxyphenyl)-5-(4-methoxyphenyl)penta-1,4-dien-3-one]	183	114 to 116	
O=C1C(=Cc2ccc(O)cc2)CCC1=Cc1ccc(O)c(O)c1 [Compound 3c, 2-(3,4-Dihydroxybenzylidene)-5-(4-hydroxybenzylidene)cyclopentanone]	7.78	> 300	inhibition type (mushroom tyrosinase [1]): mixed-competitive
O=C1C(=Cc2ccc(O)cc2)CCC1=Cc1ccc(O)cc1O [Compound 3d, 2-(2,4-Dihydroxybenzylidene)-5-(4-hydroxybenzylidene)cyclopentanone]	1.74		fold lower IC50 than kojic acid (mushroom tyrosinase [2]): about 16 fold; course of enzyme activity inhibition (mushroom tyrosinase [2]; diphenolase activity, L-DOPA, 25 °C, Figure 1): concentration-dependent; fold lower IC50 than 4-butylresorcinol (mushroom tyrosinase [2]; vs 4-butylresorcinol (11.27 μM)): ~6 fold; inhibition type (mushroom tyrosinase [1]): competitive; Body Weight (CD-1 mice; female CD-1 mice, 1,200 mg/kg): 27.3 ± 2.9 g; Drinking Water (CD-1 mice; female CD-1 mice, 1,200 mg/kg): 4.2 ± 0.5 mL/day; Food Intake (CD-1 mice; female CD-1 mice, 1,200 mg/kg): 4.0 ± 0.4 g/day; Body Weight (CD-1 mice; male CD-1 mice, 1,200 mg/kg): 30.9 ± 2.6 g; Drinking Water (CD-1 mice; male CD-1 mice, 1,200 mg/kg): 5.6 ± 0.6 mL/day; Food Intake (CD-1 mice; male CD-1 mice, 1,200 mg/kg): 5.1 ± 0.5 g/day; autopsy, changes in organs (CD-1 mice): no apparent changes
1-(3,4-Dihydroxyphenyl)-5-(4-methoxyphenyl)penta-1,4-dien-3-one [Compound 4i]	> 200		
O=C(C=Cc1ccc(O)cc1)C=Cc1ccc(O)c(O)c1 [Compound 4c, 1-(3,4-Dihydroxyphenyl)-5-(4-hydroxyphenyl)penta-1,4-dien-3-one]	4.64	181 to 183	
CCCCc1ccc(O)cc1O [4-Butylresorcinol, reference compound]	11.3		
COc1cc(C=CC(=O)C=Cc2ccc(O)cc2)ccc1O [Compound 4b, 1-(4-Hydroxy-3-methoxyphenyl)-5-(4-hydroxyphenyl)penta-1,4-dien-3-one]	46.2	98 to 101	
COc1cc(C=C2CCC(=Cc3ccc(O)cc3)C2=O)cc(Br)c1O [Compound 3g, 2-(3-Bromo-4-hydroxy-5-methoxybenzylidene)-5-(4-hydroxybenzylidene)cyclopentanone]	173	241 to 243	
1-(4-Hydroxy-3,5-dimethoxyphenyl)-5-(4-hydroxy-3-methoxyphenyl)penta-1,4-dien-3-one [Compound 4h]	< 100		fold difference in activity versus 4c (mushroom tyrosinase [2]; decrease relative to 4c (IC50 = 4.64 μM)): > 16 fold
COc1cc(C=C2CCC(=Cc3ccc(O)cc3)C2=O)ccc1O [Compound 3b, 2-(4-Hydroxy-3-methoxybenzylidene)-5-(4-hydroxybenzylidene)cyclopentanone]	56.6	278 to 280	fold difference in activity versus 3c (mushroom tyrosinase [2]; decrease relative to 3c): > 8 fold
O=C(C=Cc1ccc(O)cc1)C=Cc1cc(Br)c(O)c(Br)c1 [Compound 4e, 1-(3,5-Dibromo-4-hydroxyphenyl)-5-(4-hydroxyphenyl)penta-1,4-dien-3-one]	> 200	110 to 113	
O=C1C(=Cc2ccc(O)cc2)CCC1=Cc1cc(Br)c(O)c(Br)c1 [Compound 3h, 2-(3,5-Dibromo-4-hydroxybenzylidene)-5-(4-hydroxybenzylidene)cyclopentanone]	> 200	286 to 288	
COc1cc(C=C2CCC(=Cc3ccc(O)c(O)c3)C2=O)ccc1O [Compound 3i, 2-(3,4-Dihydroxybenzylidene)-5-(4-hydroxy-3-methoxybenzylidene)cyclopentanone]		> 300	inhibition type (mushroom tyrosinase [1]): mixed-competitive
CC(C)(C)c1cc(C=C2CCC(=Cc3ccc(O)cc3)C2=O)cc(C(C)(C)C)c1O [Compound 3f, 2-(3,5-Di-tert-butyl-4-hydroxybenzylidene)-5-(4-hydroxybenzylidene)cyclopentanone]	168	233 to 235	
COc1ccc(C=C2CCC(=Cc3ccc(O)cc3)C2=O)cc1 [Compound 3a, 2-(4-Hydroxybenzylidene)-5-(4-methoxybenzylidene)cyclopentanone]	189	241 to 243	
COc1cc(C=C2CCC(=Cc3cc(OC)c(O)c(OC)c3)C2=O)ccc1O [Compound 3k, 2-(4-Hydroxy-3,5-dimethoxybenzylidene)-5-(4-hydroxy-3-methoxybenzylidene)cyclopentanone]	> 200	129 to 131	
COc1cc(C=C2CCC(=Cc3ccc(O)cc3)C2=O)cc(OC)c1O [Compound 3e, 2-(4-Hydroxy-3,5-dimethoxybenzylidene)-5-(4-hydroxybenzylidene)cyclopentanone]	9.66	259 to 261	
COc1cc(C=CC(=O)C=Cc2ccc(O)cc2)cc(OC)c1O [Compound 4d, 1-(4-Hydroxy-3,5-dimethoxyphenyl)-5-(4-hydroxyphenyl)penta-1,4-dien-3-one]	7.2	93 to 95	
